In article PMC4961704, “Synthesis and Biological Evaluation of Thiophene-Based Cannabinoid Receptor Type 2 Radiotracers for PET Imaging” (Frontiers in Neuroscience, 2016):
“Also recorded” adds a separate entry of the source. Where two headings read alike, the source gives them in different places.

Legend:
hCB1 [1] = target: T1, hCB1 (Homo sapiens, UniProt P21554); assay: Competitive in vitro binding assay with [3H]CP-55,940, membranes of CHO-K1 cells stably transfected with hCB1; conditions: displacement of [3H]CP-55,940 (1.4 nM), 30°C, 90 min; three independent experiments in triplicate; Cheng-Prusoff
T1 construct: purchased PerkinElmer; host or cells: CHO-K1 cells stably transfected
Method: (§2) A dilution series ranging from 1 pM to 1 mM in assay buffer (50 mM TRIS, 1 mM EDTA, 3 mM MgCl2 and 0.05% bovine serum albumin, pH adjusted to 7.4) was prepared for each ligand to be tested. […] The samples were incubated at 30°C for 90 min and subsequently diluted with ice cold assay buffer (3 mL) in order to be vacuum-filtered through Whatman GF/C filters (pre-treated with aq. polyethylenimine, 0.05%). Each sample was washed twice with ice cold assay buffer (3 mL) and filtered again. After addition of scintillation cocktail (Ultima Gold, Perkin Elmer), radioactivity was measured using a Beckman LS 6500 Liquid Scintillation Counter. IC50 mean values were calculated after performing three independent experiments, each as triplicate.
(§3) Binding affinity studies were performed using membranes stably transfected with human CB1 and CB2, respectively.

hCB2 [2] = target: T2, hCB2 (Homo sapiens, UniProt P34972); assay: Competitive in vitro binding assay with [3H]CP-55,940, membranes of CHO-K1 cells stably transfected with hCB2; conditions: displacement of [3H]CP-55,940 (1.4 nM), 30°C, 90 min; three independent experiments in triplicate; Cheng-Prusoff
T2 construct: purchased PerkinElmer; host or cells: CHO-K1 cells stably transfected
Method: as §2, §3

hCB2 [3] = target: T2, hCB2; parameters: method as in earlier work; conditions: known ligands, entry 1–3; ref Showalter et al., 1996; Lan et al., 1999; Valenzano et al., 2005; cited from earlier work
hCB1 [4] = target: T1, hCB1; parameters: method as in earlier work; conditions: known ligands, entry 1–3; ref Showalter et al., 1996; Lan et al., 1999; Valenzano et al., 2005; cited from earlier work
[5] = system: CB2-positive mouse spleen tissue; assay: In vitro autoradiography on mouse spleen tissue sections; assay type: binding, CD1 mouse; conditions: 5 nM radiotracer; baseline vs blockade with 10 μM GW405833; n = 2
Method: (§1) Autoradiography was performed on rat/mouse spleen tissue. Sections were prepared in 20 μm thickness using a cryostat (Cryo-Star NX 50; Thermo Scientific). The tissue slices were adsorbed to SuperFrost Plus (Menzel) slides and stored at −20°C until use. After thawing on ice for 10 min, sections were pre-incubated in the assay buffer containing 50 mM TRIS, 5 mM MgCl2, 2.5 mM EDTA, and 0.5% BSA (pH 7.4). […] In order to test for specificity toward CB2, a solution containing both radiotracer and an excess of CB2 specific partial agonist GW405833 (10 μM) was prepared and added to the tissue. The tissue slices were washed twice with assay buffer (each 2 min) and twice with distilled water (each 5 s) on ice, air dried, and exposed to a phosphor imager plate for a period of 25 min. The plate was scanned using a BAS5000 reader (Fujifilm, Dielsdorf, CH).

[6] = system: CB2-positive rat spleen tissue; assay: In vitro autoradiography on rat spleen tissue sections; assay type: binding, Wistar rat; conditions: 5 nM radiotracer; baseline vs blockade with 10 μM GW405833; n = 2
Method: as §1

CB2-positive spleen = assay: In vivo PET/CT of the spleen region after tail-vein injection; parameters: species or system Wistar rat
Method: Under baseline conditions, radiotracer accumulation was recorded in the region of the spleen in dynamic PET acquisition mode over 60 min (n = 2). During this whole time period rats were kept under anesthesia, body temperature and respiratory rate were constantly monitored. Under blockade conditions, 1.5 mg/kg GW405833 was injected shortly before radiotracer application in two of the four rats. Acquired PET data were reconstructed as user-defined time frames with a voxel size of 0.3875 × 0.3875 × 0.775 mm. For anatomical orientation, CT scans were acquired after each PET scan. Images were evaluated with PMOD v3.4 (PMOD Technologies Inc., Zurich, CH) software. Regions of interest (spleen, liver, and muscle) were drawn manually using the PMOD fusion tool. Time activity curves (TACs) for spleen, liver and muscle were expressed as standardized uptake values (SUV) which are the decay-corrected radioactivity per cm^3 divided by the injected radioactivity dose per gram of body weight.

T2 sequence (P34972 whole entry): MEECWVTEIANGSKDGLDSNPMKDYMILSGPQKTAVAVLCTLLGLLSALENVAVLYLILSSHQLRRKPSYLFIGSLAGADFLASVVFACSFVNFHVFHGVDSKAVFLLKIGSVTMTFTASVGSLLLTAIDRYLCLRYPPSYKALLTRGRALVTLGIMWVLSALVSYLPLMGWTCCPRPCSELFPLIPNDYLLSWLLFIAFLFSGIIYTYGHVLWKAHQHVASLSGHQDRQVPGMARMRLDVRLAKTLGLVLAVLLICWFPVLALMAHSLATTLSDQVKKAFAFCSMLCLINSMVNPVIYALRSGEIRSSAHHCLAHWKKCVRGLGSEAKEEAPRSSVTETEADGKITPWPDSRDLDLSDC
T1 sequence (P21554 whole entry): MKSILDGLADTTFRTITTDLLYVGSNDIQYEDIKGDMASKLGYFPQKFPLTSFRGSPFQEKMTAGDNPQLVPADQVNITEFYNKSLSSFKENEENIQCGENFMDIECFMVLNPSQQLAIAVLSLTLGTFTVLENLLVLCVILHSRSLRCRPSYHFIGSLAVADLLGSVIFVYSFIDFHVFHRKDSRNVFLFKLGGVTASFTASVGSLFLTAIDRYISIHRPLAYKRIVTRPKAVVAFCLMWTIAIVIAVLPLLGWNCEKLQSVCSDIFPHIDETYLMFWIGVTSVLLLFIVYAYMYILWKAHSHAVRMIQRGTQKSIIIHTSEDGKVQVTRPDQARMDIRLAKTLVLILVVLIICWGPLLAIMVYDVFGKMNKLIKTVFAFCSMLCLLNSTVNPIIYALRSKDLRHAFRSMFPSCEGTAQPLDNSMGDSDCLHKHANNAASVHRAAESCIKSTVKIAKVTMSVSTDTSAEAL

## CCCc1c(C)sc(NC(=O)C23CC4CC(CC(C4)C2)C3)c1C(=O)OC [AAT-778, Methyl 2-(adamantane-1-carboxamido)-5-methyl-4-propylthiophene-3-carboxylate]
hCB1 [1]
  Ki: 1.1 ± 0.1 µM
hCB2 [2]
  Ki: 0.0043 ± 0.0007 µM

## COc1ccc2c(c1)c(CCN1CCOCC1)c(C)n2C(=O)c1cccc(Cl)c1Cl [GW405833]
hCB2 [3]
  Ki: 0.0039 ± 0.0016 µM
hCB1 [4]
  Ki: 4.77 ± 1.68 µM

## [11CH3]OC(=O)c1c(NC(=O)C23CC4CC(CC(O)(C4)C2)C3)sc2c1CCCC2 [[^11C]AAT-015]
[5]
  specificity of binding to mouse spleen tissue (autoradiography): high unspecific binding
[6]
  specificity of binding to rat spleen tissue (autoradiography): high unspecific binding
CB2-positive spleen; baseline, 10–15 MBq i.v., 0–60 min post injection
  spleen uptake of radiotracer (PET): no accumulation; also recorded: low uptake
CB2-positive spleen; blockade with 1.5 mg/kg GW405833 shortly before tracer, 60 min
  spleen uptake, TACs baseline vs blockade (PET): no difference

## CCCc1c(C)sc(NC(=O)C23CC4CC(CC(C4)C2)C3)c1C(=O)O[11CH3] [[^11C]AAT-778]
[5]
  specificity of binding to mouse spleen tissue (autoradiography): No blocking effect; also recorded: high unspecific binding
[6]
  specificity of binding to rat spleen tissue (autoradiography): No blocking effect; also recorded: high unspecific binding
